Experimental data taken from US4727090A, “Process for preparing and therapeutical applications of the 2,4,6-triiodophenol” (Bislak, S.A., priority 1983, dated 1988).
Read-outs that look alike come from different tables or passages of the source.

What was measured:
[1] = test system: granuloma formed around cotton implant; experiment: Cotton implant granuloma test; type: in vivo, rats; settings: 72 hours
Experimental: (B) To a group of 10 rats of about 200-225 g is implanted at the dorsal zone, subcutaneously, balled cotton (about 9 mg) impregnated and afterwards dried with a solution of medicamentous substance and which amount is known.
We use as reference Dexamethasone and controls without medicament.
After 72 hours, once the animal is sacrificed, the granuloma formed around the implant is extracted and weighed, after drying at 100° C.
The antiinflammatory reduces the weight of the granuloma.

[2] = test system: acetic acid induced pullings; experiment: Writhing syndrome test (acetic acid); type: in vivo, mice; settings: 500 mg/kg oral; for inhibition at 500 mg/kg: Mus musculus, po, read-out: % INHIB. (pullings)
Experimental: Irritant substance: acetic acid at 0.5% injected via intraperitoneal.
Foundation of the method consists in provoking a dolorous syndrome by pulling and torsion of the stomach and the hind legs of the animals.
These pullings or stretchings are calculated during a certain time, using it as the measure of the provoked ache.
Mice of about 22 g by weight were used, animals were left under abstinence during 24 hours before carrying out the test.
Mice were previously selected as to each individual response to the dolorous stimulus provoked by an intraperitoneal injection of 0.2 ml of an acetic acid aqueous solution at the 0.5%. Valid animals for realizing the test are those which respond within a margin of 15-35 pullings in about 5 to 15 minutes after the injection. The remaining animals are not useful.
Medication is realized via oral with the help of an esophageal cannula.
White lot: Administration of 0.1 ml of CMC 1% for each 10 g of corporal weight.
2,4,6-triiodophenol lot: Administration of 10 mg/kg of the product, suspended in CMC of 1%.
Aspirin-Lysin lot (Solusprin): Administration of 500 mg/kg aspirin, dissolved at 1%.
After medication, one has to wait 20 minutes for injecting 0.2 ml acetic acid of 0.5% via intraperitoneal, calculating the number of pullings during 5 minutes. […]
The test was carried out in 9 mice in each lot.

[3] = test system: sensation of pain on hot plate; experiment: Hot plate test at 56° C; type: in vivo, mice; settings: 500 mg/kg injection
Experimental: (A) To control analgesic activity we use mice of about 25 g by weight, in groups of ten mice, subjected to the test of the hot plate at 56° C.
Animals receive a medicamentous injection of 0.1 ml of solubilized aspirin with sodium bicarbonate, or of solubilized triiodophenol at pH 9'5.
Controls receive physiologic serum.
The time in which the animals indicate sensation of pain is measured with a chronometer.
In the hereunder table the results testing animals, 15 min. and 30 min. after the medication. Average values are taken of each group.

Carrageenin leg oedema [4] = experiment: Carrageenin leg oedema test; type: in vivo, white rats; settings: Rattus norvegicus; 10 mg/kg oral, 4 hours
Experimental: (A) The antiinflammatory action is shown in white rats, of a weight of about 200-225 g, having provoked in these animals the leg oedema by means of an injection in the sole of the foot of 0.1 ml of a 1% Carrageenin solution.
One control group of ten animals, another the same medicated with indomethacin via oral at 30 mg/kg, in suspension in a carboxymethylcellulose solution, another group of ten rats, medicated with triiodophenol in oral solution at 5 mg/kg, another group medicated with triioodophenol at 1 mg/kg, injected via intramuscular and another group medicated with triiodophenol at 0.5 mg/kg via intramuscular. All medications are administered simultaneously to the formation of Edema.
The volume of the same is measured at 0 hours, 3 hours, 4 hours, 5 hours and 6 hours with a mercury Plestimograph.

Carrageenin leg oedema [5] = experiment: Carrageenin leg oedema test; type: in vivo, white rats; settings: Rattus norvegicus, 10 mg/kg oral

C[C@@H]1C[C@H]2[C@@H]3CCC4=CC(=O)C=C[C@]4(C)[C@@]3(F)[C@@H](O)C[C@]2(C)[C@@]1(O)C(=O)CO [Dexamethansone, reference compound]
% Reduction of the granuloma (Average) ([1]; 10 micrograms per implant): 16%
% Reduction of the granuloma (Average) ([1]; 20 micrograms per implant): 28%
% Reduction of the granuloma (Average) ([1]; 40 micrograms per implant): 30%

CC(=O)Oc1ccccc1C(=O)O [ASPIRIN, reference compound]
Total No. pullings ([2]; 20'): 12
Total No. pullings ([2]; 30'): 6
Total No. pullings ([2]; 100'): 6
inhibition at 500 mg/kg ([2]; 20'): 90%
inhibition at 500 mg/kg ([2]; 30'): 89.2%

CC(=O)Oc1ccccc1C(=O)O [Acetyl salicylic acid, reference compound]
Time to sensation of pain ([3]; 15 minutes): 4,3 sec.
Time to sensation of pain ([3]; 30 minutes): 6,8 sec.

COc1ccc2c(c1)c(CC(=O)O)c(C)n2C(=O)c1ccc(Cl)cc1 [Indomethacin]
inhibition at 10 mg/kg (Carrageenin leg oedema [4]): 63%
inhibition at 10 mg/kg (Carrageenin leg oedema [5]; 3 hours): 59%
inhibition at 10 mg/kg (Carrageenin leg oedema [5]; 5 hours): 69%
inhibition at 10 mg/kg (Carrageenin leg oedema [5]; 6 hours): 73%
